Consider 103 compounds from ChEMBL document CHEMBL3507680, “University of Dundee, Gates Library screen for HepG2 cell viability”.

Structures are written as SMILES.

The series can be described thus: Human HepG2 cell viability assay in 384 well format. Format: toxicity, cell-based. Set-up: dose 125 nL, time 70.5 hour; concentration not given beside the values. The note with it: HepG2 cells, read-out: Inhibition.

`Cc1cc(NC(=O)NCC(O)c2ccc(F)c(F)c2)n(C)n1` (stereo not drawn): the cytotoxicity at 70.5 h was 13.9%.
For `Cc1ccc(C(O)CNC(=O)Nc2cc(C)nn2C)cc1` (stereo not drawn), the cytotoxicity at 70.5 h is -3.09%.
The result for `COc1ccc(OC)c(C(O)CNC(=O)Nc2cc(C)nn2C)c1` (stereo not drawn) reads -7.8%; that for `CC(Cn1ccnc1)NC(=O)NCc1ccccn1` (stereo not drawn), -15.6%.
For `Cc1noc2ncc(C(=O)NCC3CCCOC3)cc12` (stereo not drawn), the cytotoxicity at 70.5 h is -8.17%.
As to `Cc1cc(C)c(CNC(=O)C2CCN(c3cnccn3)CC2)c(=O)[nH]1`, the cytotoxicity at 70.5 h is -3.48%.
The result for `CCn1ccnc1CN1CCN(CCC(=O)NC2CCCCC2)CC1` reads -6.92%; that for `CCC(C)NC(=O)CCNC(=O)Nc1ccc(-n2cncn2)c(F)c1` (stereo not drawn), -10.1%.
On to `O=C(CC1C=CCC1)Nc1ncn(CC(=O)N2CCCCCC2)n1` (stereo not drawn), for which the cytotoxicity at 70.5 h was -13.4%.
The same measure for `Cc1cc(C)n(CCC(=O)N2CCC(Nc3cccnn3)CC2)n1`: -12.8%.
Take `CCCNC(=O)NC(=O)CN1CCN(Cc2nccn2CC)CC1`: the cytotoxicity at 70.5 h is -9.22%.
The result for `CN(C(=O)Nc1ccncc1)C1CCN(c2ccccc2)C1=O` (stereo not drawn) reads -11.8%; that for `CN(Cc1csc(-c2cnn(C)c2)n1)CC1CCN(CCO)CC1`, 18.5%.
Consider `c1ccc(-c2nc(CNCC3CCCN3c3cccnn3)co2)cc1` (stereo not drawn), for which the cytotoxicity at 70.5 h worked out at 12.4%.
For the compound `c1cnnc(N2CCCC2CNCc2cscn2)c1` (stereo not drawn), the cytotoxicity at 70.5 h is -15%.
The result for `Cc1ccsc1C(=O)N(C)Cc1ccncc1` reads -7.89%; that for `CCn1cc(NC(=O)NCC(c2ccc(OC)cc2)N(C)C)cn1` (stereo not drawn), -5.2%; that for `CC(C)(C)c1noc(CN2CCCCC2Cn2cncn2)n1` (stereo not drawn), -0.0275%.
With `CN(CC1COc2ccccc2O1)C(=O)CCn1cncn1` (stereo not drawn), the cytotoxicity at 70.5 h was -9.47%.
The result for `Cc1ccc(CN(C)C(=O)c2scnc2C)cc1` reads -3.98%; that for `Cc1ccccc1CNC(=O)Cn1nc(-c2ccc(F)cc2)oc1=O`, -9.26%; that for `COc1ccccc1CNC(=O)Cn1nc(-c2ccc(F)cc2)oc1=O`, 10.9%.
The result for `CN(CC1COc2ccccc2O1)C(=O)NCCCn1cccn1` (stereo not drawn) reads -8.71%; that for `CCn1cc(NC(=O)NCC(c2cccc(OC)c2)N(C)C)cn1` (stereo not drawn), -8.98%; that for `Cc1c(C(=O)NCc2ccnc(OCC(F)(F)F)c2)cnn1C`, -4.98%.
The result for `COc1cc(CNC(=O)c2c(C)noc2C)ccn1` reads -4.45%.
For `Cc1cc(C)n(-c2ccc(CNCc3ccc(F)cc3F)cn2)n1`, the cytotoxicity at 70.5 h was -11.6%.
The result for `Cc1cccnc1NC(=O)N(CCO)Cc1ccsc1` reads -4.42%; that for `Cc1ccc(C(=O)N2CCC(Oc3ccc(C)c(C)c3)CC2)c(=O)[nH]1`, -2.32%; that for `Cc1cnn(CC2CN(c3nnc(C)c(C)c3C#N)CCO2)c1` (stereo not drawn), -3.86%.
As to `COc1cccc(CCC(=O)N2CCN(CC(C)(C)O)CC2)c1`, the cytotoxicity at 70.5 h is 10.1%.
The same measure for `CC(C)(O)CN1CCN(C(=O)COCc2ccccc2Cl)CC1`: -0.918%.
The result for `COCCN1CCN(Cc2csc(-c3cnn(C)c3)n2)CC1` reads -7.26%; that for `CC(C)c1nnc2n1CCN(CCC(=O)N1CCc3ccccc31)C2`, -5.29%.
The same measure for `Cc1cn2c(n1)CCC(NC(=O)c1ccc(S(C)(=O)=O)o1)C2` (stereo not drawn): 6.89%; for `CCOCCN1CCN(Cc2csc(-c3cnn(C)c3)n2)CC1`: -13.2%.
On to `CS(=O)(=O)Cc1ccc(C(=O)NC2CCc3nccn3C2)o1` (stereo not drawn), for which the cytotoxicity at 70.5 h is -6.33%.
The same measure for `Cc1noc(C)c1CC(=O)NCc1ccnc(OCC(F)(F)F)c1`: -7.45%.
In the case of `COc1cc(CNCc2ccc(-n3nc(C)cc3C)nc2)cc(OC)c1`, the cytotoxicity at 70.5 h is -5.72%.
The same measure for `CN(C)C1CCN(C(=O)Cc2csc(-c3ncccn3)n2)CC1`: 0.448%; for `CC(NC(=O)CCCc1nc(C(C)(C)C)no1)c1ccccn1` (stereo not drawn): 10.9%.
The same measure for `CN(C)c1ccc(C(=O)Nc2cn[nH]c2)cc1`: -2.5%; for `COCC(=O)NC(C)c1cccc(Br)c1` (stereo not drawn): -2.66%.
The result for `Cc1ccc(C(=O)Nc2cn[nH]c2)cc1` reads -6.42%.
`CN(Cc1ccco1)C(=O)NC1CCCN(c2ncccn2)C1` (stereo not drawn): the cytotoxicity at 70.5 h amounted to 8.71%.
`Cc1noc(CCCC(=O)NC(C)c2ccc(Cl)s2)n1` (stereo not drawn): the cytotoxicity at 70.5 h is -7.88%.
Turning to `Cc1cc(CN2CCN(C(=O)NC(C)Cn3cccn3)CC2)no1` (stereo not drawn), the cytotoxicity at 70.5 h is -9.58%.
The result for `Cc1cc(CN(C)C(=O)NC2CCN(c3ncccn3)CC2)no1` reads -0.403%; that for `O=C(NCCCn1cncn1)N1CCCCCC1`, 1.12%.
`CCN(Cc1ccc2c(c1)OCCO2)C(=O)c1ccc(C)[nH]c1=O`: the cytotoxicity at 70.5 h is -1.79%.
The same measure for `CCOc1ccc(CN(CC)C(=O)c2ccc(C)[nH]c2=O)cc1OC`: -0.243%; for `CC(=O)N1CCCN(C(=O)NCCCn2cncn2)CC1`: -0.358%; for `CN1CCCC1CNC(=O)CCCOc1cccc(Br)c1` (stereo not drawn): 17.7%.
The same measure for `O=C(NCCCn1cncn1)N1CCC(N2CCCCC2)CC1`: -2.83%.
Take `O=C(CCc1ccncc1)N1CCCC(n2cccn2)C1` (stereo not drawn): the cytotoxicity at 70.5 h is -1.5%.
As for `O=C(CCCc1ccccn1)N1CCCC(n2cccn2)C1` (stereo not drawn), the cytotoxicity at 70.5 h is -3.36%.
As for `O=C(CCc1ccco1)N1CCCC(n2cccn2)C1` (stereo not drawn), the cytotoxicity at 70.5 h was -0.72%.
The result for `COc1ccc(C(=O)Nc2cnn(CCN3CCOCC3)c2)c(O)c1` reads 0.79%; that for `CC(=O)N1CCCCCC1C1CCN(c2ncccc2C#N)CC1` (stereo not drawn), -1.45%; that for `Cc1cnn(CCNCc2csc(-c3ccco3)n2)c1`, 18%.
The result for `CC(C)C(=O)NCc1ccc(-n2cncn2)nc1` reads -4.44%; that for `CCc1nnsc1C(=O)N1CCCN(Cc2ccc(C)cc2)CC1`, -8.18%; that for `CCCS(=O)(=O)NC1CCN(c2nnc(C)c(C)c2C#N)CC1`, -6.18%.
The result for `CC(=O)Nc1nc(C(=O)NC(C)c2cccnc2)cs1` (stereo not drawn) reads -6.5%; that for `Cc1cc(CN(C)C(=O)NCC2CCS(=O)(=O)C2)no1` (stereo not drawn), -9.21%; that for `CS(=O)(=O)c1ccc(CNC(=O)NCC2CCOC2)cc1` (stereo not drawn), 4.53%.
Turning to `CCC(C)C(=O)NCc1ccc(-n2cncn2)nc1` (stereo not drawn), the cytotoxicity at 70.5 h is -6.68%.
`CCC(C)C(=O)NCc1cccc(N2CCCCC2=O)c1` (stereo not drawn): the cytotoxicity at 70.5 h was -4.37%.
On to `CC(C(=O)NCc1cccc(N2CCCC2=O)c1)S(C)(=O)=O` (stereo not drawn), for which the cytotoxicity at 70.5 h was 0.0426%.
The same measure for `O=C(CCc1ccc2c(c1)OCO2)N1CCCC(n2cccn2)C1` (stereo not drawn): 13.3%; for `CCOc1ccccc1-c1noc(CN2CCOC(CN(C)C)C2)n1` (stereo not drawn): -10.8%.
The same measure for `Cc1nnc(N2CCCC(CS(N)(=O)=O)C2)c(C#N)c1C` (stereo not drawn): -2.95%.
As to `CCCOCC(=O)N1CCCN(Cc2csc(CC)n2)CC1`, the cytotoxicity at 70.5 h worked out at 6.02%.
Take `Cc1ccccc1CCNC(=O)N1CCCC(c2nncn2C)C1` (stereo not drawn): the cytotoxicity at 70.5 h is -9.14%.
The same measure for `Cc1ccc(C)c(NC(=O)C(C)N2CCCN(c3nccs3)CC2)c1` (stereo not drawn): -6.54%; for `CCn1cnnc1C1CCN(C(=O)COc2ccc(Cl)cc2)CC1`: -9.99%.
The same measure for `CCc1nc(CN2CCN(C(=O)c3cc(C)no3)CC2)cs1`: -8.13%.
As to `CCc1noc(C)c1C(=O)N1CCCN(Cc2csc(C)n2)CC1`, the cytotoxicity at 70.5 h was -9.45%.
The same measure for `CCc1nc(CN2CCCN(C(=O)c3cn[nH]c3C)CC2)cs1`: -6.19%; for `CCOCC(O)CN1CCN(C(=O)c2cccc3[nH]ncc23)CC1` (stereo not drawn): -4.87%; for `CCc1nc(CN2CCCN(C(=O)COC)CC2)cs1`: -6.47%.
For the compound `COc1ccc(Cl)cc1C(=O)N(C)Cc1cc(C)on1`, the cytotoxicity at 70.5 h was -3.26%.
Consider `CC(C)c1cc(C(=O)NCCn2nc3ccccn3c2=O)n[nH]1`, for which the cytotoxicity at 70.5 h is -4.09%.
Regarding `CC(C)Cc1cc(C(=O)NCCn2nc3ccccn3c2=O)[nH]n1`, the cytotoxicity at 70.5 h is -3.87%.
The same measure for `CCN(Cc1nc2c(cnn2C)c(=O)[nH]1)Cc1ccccc1C`: 1.06%; for `CC(C)(O)CN1CCN(C(=O)c2cccc3[nH]ncc23)CC1`: -1.27%; for `Cc1nc(CC(=O)N2CCC(Nc3cccnn3)CC2)cs1`: -6.73%.
In the case of `O=C(CN1CCN(c2ccc3nncn3n2)CC1)NC1CCCCC1`, the cytotoxicity at 70.5 h was -11.1%.
For the compound `Cc1noc(C(C)N2CCN(Cc3cccc(C#N)c3)CC2)n1` (stereo not drawn), the cytotoxicity at 70.5 h is -5.03%.
The same measure for `CC(C)c1noc(C(C)N2CCN(Cc3cccc(C#N)c3)CC2)n1` (stereo not drawn): -11%; for `CCn1nc2c(cc1=O)CN(Cc1nnc(C3CC3)o1)CC2`: 2.46%; for `c1coc(-c2nc(CN3CCn4c(nnc4C4CC4)C3)cs2)c1`: -8.26%.
The same measure for `Cn1nc2c(cc1=O)CN(Cc1nc(C3CC3)no1)CC2`: -8.63%.
The result for `CCCOc1cccc(NS(=O)(=O)c2cc(C(=O)O)cs2)c1` reads 4.51%; that for `COc1c(C2CCCN2Cc2csc(C(C)C)n2)c(C)nn1C` (stereo not drawn), 41%.
For `Cc1nc(CN2CCCC(NCc3c(C)nc4sccn34)C2)no1` (stereo not drawn), the cytotoxicity at 70.5 h was 1.63%.
The result for `N#Cc1cccc(S(=O)(=O)NC(=O)COC2CCCC2)c1` reads 11.3%; that for `CC(C)(C)c1nc(CN2CCCC2Cn2cccn2)no1` (stereo not drawn), 12.2%; that for `CNS(=O)(=O)Cc1ccc(CNC(=O)c2cccc(C)n2)cc1`, -1.09%.
In the case of `COc1cc(CNC(=O)c2c(C)noc2C(C)C)ccn1`, the cytotoxicity at 70.5 h was -2.32%.
As to `Cc1noc(C(C)C)c1C(=O)NCc1cccc(N(C)C)c1`, the cytotoxicity at 70.5 h was determined as 12.6%.
The result for `Cc1cccnc1NC(=O)NCc1ccc(N2CCNC(=O)C2)cc1` reads -10.1%.
The result for `COc1cccc(S(=O)(=O)NC(=O)COC2CCCC2)c1` reads -3.13%.
